Measured values reported in article PMC3884022 (Journal of Hematology & Oncology, 2014).

Assays:
[1] = system: non-small cell lung (NSCLC) cell lines and breast cancer cell lines; conditions: with erlotinib and lapatinib; including RAS mutant lines; cited from earlier work
[2] = system: patients with advanced solid tumors; conditions: cited from earlier work
CYP3A = CYP3A induction (mRNA and activity); format: in vitro ADME; conditions: at 0.1 to 10 μM

NC1(c2ccc(-c3nc4ccn5c(=O)[nH]nc5c4cc3-c3ccccc3)cc2)CCC1 [MK-2206]
inhibition of proliferation and induction of apoptosis in combination [1]: synergy | MTD of single-agent MK-2206 ([2]; QOD): 60 mg | MTD of MK-2206 monotherapy ([2]; QW, monotherapy phase 1 study): 200 mg | half-life (t1/2) ([2]; single agent, QOD schedule): 60 to 80 h | dose-limiting toxicities (DLT) ([2]; single agent): rash and stomatitis | plasma concentration corresponding to 70% AKT inhibition ([2]; single-agent phase 1 study): 56.8 nM | effect on CYP3A mRNA and activity (CYP3A): insignificant effect
